Key:
souris = test: Acute toxicity in mice, intraperitoneal route; type: in vivo; settings: i.p.
Text: La toxicité aiguë des composés selon l'invention a également été étudiée chez la souris par voie intrapéritonéale. Le tableau II ci-après donne à titre d'exemple non limitatif les résultats obtenus avec certains des composés selon l'invention.

[1] = system: redressements à l'apomorphine; test: Antagonism of apomorphine-induced rearing (climbing) in mice; type: in vivo; settings: souris, i.p.
Text: Ces propriétés psychotropes ont été mises en évidence chez la souris, notamment par le test de l'antagonisme aux redressements à l'apomorphine réalisé d'après le protocole décrit par G. GOURET et Coll. dans J. Pharmacol. (Paris) (^1973), ^4, 341.

## COc1cccc(C(=O)NC2CC3CCC(C2)[N+]3([O-])Cc2ccccc2)c1OC (stereo not shown) [compound 1, N-oxyde axial du (diméthoxy-2,3) benzoylamino-3 N-benzyl aza-8 bicyclo [3.2,1] octane]
souris
  Toxicité (souris) DL 50: > 400 mg/kg/i.p.
[1]
  Antagonisme aux redressements à l'apomorphine DE 50: 2,2 mg/kg/i.p.

## COc1cccc(C(=O)NC2CC3CCC(C2)[N+]3([O-])Cc2ccccc2)c1OC (stereo not shown) [compound 2, N-oxyde équatorial du (diméthoxy-2,3) benzoylamino-3 N-benzyl aza-8 bicyclo[3.2.1] octane]
souris
  Toxicité (souris) DL 50: 400 mg/kg/i.p.
[1]
  Antagonisme aux redressements à l'apomorphine DE 50: 0,27 mg/kg/i.p.
